Data taken from patent publication US8426429B2, “2-amino-quinazoline derivatives useful as inhibitors of β-secretase (BACE)” (Jansssen Pharmaceutica N.V., priority 2004, dated 2013).

Molecular target: T1, β-secretase (BACE) (Homo sapiens, UniProt P56817)
T1 construct: purchased Panvera
Assay: BACE FS1 % Inhibition Assay
Format: biochemical
Method: The following reagents were used in this assay: sodium acetate, PEG8000 (Sigma), DMSO, HEPES, FS1 substrate [[…]] […] The FS1-substrate stock solution was prepared in DMSO as a 10 mg/mL solution. The FS1-substrate working solution was prepared by diluting the 10 mg/mL stock solution with substrate assay buffer to a final concentration of 300 μg/mL. The β-secretase (BACE) working solution was prepared by diluting a 0.83 mg/mL BACE stock solution with enzyme assay buffer to a final concentration of 4 μg/mL. Test compounds were dissolved in DMSO to 10 mM. […] The screening procedure for this assay was as follows: 15 μL of BACE working solution was pipetted into each well of a 96-well plate. To each well was then pipetted 2 μL of test compound at the selected concentration. Test compound and BACE were then mixed with a pipettor and incubated for 20 min at room temperature. To each well was then added 10 μL of the FS1 substrate working solution. The plates were then incubated for 1 hour at room temperature. […] The procedure for the blank was as follows. 15 μL of assay buffer was pipetted into each well to be used as a blank control. To each well was then added 2 μL of vehicle and 10 μL of FS1-substrate working solution. The plates were then incubated for 1 hour at room temperature. […] The procedure for the positive control was as follows: 15 μL of BACE working solution was pipetted into each well to be used as a positive control. To each well was then pipetted 2 μL of vehicle. Vehicle and BACE were then mixed with a pipettor and incubated for 20 min at room temperature. To each well was then added 10 μL of the FS1 substrate working solution. The plates were then incubated for 1 hour at room temperature. […] For test compounds, % inhibition was determined at each concentration as follows: [formula]

T1 sequence (P56817 46-501): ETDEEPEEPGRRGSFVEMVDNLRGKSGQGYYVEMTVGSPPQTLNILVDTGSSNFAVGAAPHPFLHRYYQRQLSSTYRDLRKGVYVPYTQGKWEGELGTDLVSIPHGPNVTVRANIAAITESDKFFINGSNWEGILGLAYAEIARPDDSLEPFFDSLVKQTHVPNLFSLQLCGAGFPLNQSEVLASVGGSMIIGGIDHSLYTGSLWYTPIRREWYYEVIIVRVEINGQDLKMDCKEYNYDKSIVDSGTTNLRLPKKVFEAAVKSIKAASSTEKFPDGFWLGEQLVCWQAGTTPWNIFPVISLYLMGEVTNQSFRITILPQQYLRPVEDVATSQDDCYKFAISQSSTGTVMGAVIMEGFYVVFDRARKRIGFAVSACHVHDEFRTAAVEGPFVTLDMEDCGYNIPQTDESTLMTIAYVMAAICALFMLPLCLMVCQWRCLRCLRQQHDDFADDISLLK

SMILES	% Inhibition (FS) (0.3 μM test compound) [%]	% Inhibition (FS) (1 μM test compound) [%]	% Inhibition (FS) (3 μM test compound) [%]
CN(C(=O)CC(C1CCCCC1)N1Cc2cc(Oc3ccccc3)ccc2N=C1N)C1CCCCC1 (stereo not drawn) [Compound 199]	<30	<30	82
CC(C)N(C(=O)CC(C1CCCCC1)N1Cc2cc(Oc3ccccc3)ccc2N=C1N)C1CCCCC1 (stereo not drawn) [Compound 200]	<30	<30	<30
CC(C)C(CC(=O)N(C)C1CCCCC1)N1Cc2cc(Oc3ccccc3)ccc2N=C1N (stereo not drawn) [Compound 201]	<30	<30	66
CC(C)C(CC(=O)N(C(C)C)C1CCCCC1)N1Cc2cc(Oc3ccccc3)ccc2N=C1N (stereo not drawn) [Compound 202]	<30	<30	<30
NC1=Nc2ccc(Oc3ccccc3)cc2CN1CCNC(=O)C(c1ccccc1)c1ccccc1 [Compound 207]	48	90	108
CCCCCCCCC(CCC(=O)NC1CCCCCC1)N1Cc2cc(Oc3ccccc3)ccc2N=C1N (stereo not drawn) [Compound 208]	<30	<30	67
CCCCCCCCC(CCC(=O)N(C)C1CCCCC1)N1Cc2cc(Oc3ccccc3)ccc2N=C1N (stereo not drawn) [Compound 210]	<30	<30	<30
NC1=Nc2ccc(Oc3ccccc3)cc2CN1Cc1cccc(C(=O)N2CCCC3CCCCC32)c1 (stereo not drawn) [Compound 212]	<30	<30	32
CC1CCC(NC(=O)c2cccc(CN3Cc4cc(Oc5ccccc5)ccc4N=C3N)c2)CC1 (stereo not drawn) [Compound 213]	<30	<30	<30
COc1cccc(C(=O)NCCN2Cc3cc(Oc4ccccc4)ccc3N=C2N)c1 [Compound 217]	<30	<30	56
CN1CCCC1CCNC(=O)c1cccc(CN2Cc3cc(Oc4ccccc4)ccc3N=C2N)c1 (stereo not drawn) [Compound 222]	<30	<30	<30
CN1CCC(N(C)C(=O)c2cccc(CN3Cc4cc(Oc5ccccc5)ccc4N=C3N)c2)CC1 [Compound 223]	<30	<30	<30
CC(C)(C)OC(=O)Nc1cccc(CN2Cc3cc(Oc4ccccc4)ccc3N=C2N)c1 [Compound 224]	<30	<30	<30
COc1ccc(-c2ccc3c(c2)CN(C(CCC(=O)N(C)C2CCCCC2)C2CCCCC2)C(N)=N3)cc1 (stereo not drawn) [Compound 226]	<30	<30	54
COc1ccccc1-c1ccc2c(c1)CN(C(CCC(=O)N(C)C1CCCCC1)C1CCCCC1)C(N)=N2 (stereo not drawn) [Compound 227]	86	109	116
Cc1cc(C)cc(Oc2ccc3c(c2)CN(Cc2cccc(C(=O)N(C)C4CCCCC4)c2)C(N)=N3)c1 [Compound 228]	<30	49	40
CC(=O)Nc1cccc(Oc2ccc3c(c2)CN(Cc2cccc(C(=O)N(C)C4CCCCC4)c2)C(N)=N3)c1 [Compound 229]	<30	35	<30
CN(C(=O)c1cccc(CN2Cc3cc(Oc4cccnc4)ccc3N=C2N)c1)C1CCCCC1 [Compound 230]	<30	33	<30
COc1ccccc1Oc1ccc2c(c1)CN(Cc1cccc(C(=O)N(C)C3CCCCC3)c1)C(N)=N2 [Compound 232]	<30	<30	31
CN(C(=O)c1cccc(CN2Cc3cc(Oc4ccc5c(c4)CCCC5)ccc3N=C2N)c1)C1CCCCC1 [Compound 233]	<30	32	36
CN(C(=O)c1cccc(CN2Cc3cc(Oc4ccccc4-c4ccccc4)ccc3N=C2N)c1)C1CCCCC1 [Compound 234]	<30	57	43
CN(C(=O)c1cccc(CN2Cc3cc(Oc4ccccc4CC(N)=O)ccc3N=C2N)c1)C1CCCCC1 [Compound 235]	<30	46	<30

SMILES	% Inhibition (FS) (0.3 μM test compound) [%]	% Inhibition (FS) (1 μM test compound) [%]	% Inhibition (FS) (3 μM test compound) [%]
CN(C(=O)c1cccc(CN2Cc3cc(Oc4cccc(Oc5ccccc5)c4)ccc3N=C2N)c1)C1CCCCC1 [Compound 236]	<30	37	49
CC(C)(C)OC(=O)NCC(C1CCCCC1)N1Cc2cc(Oc3ccccc3)ccc2N=C1N (stereo not drawn) [Compound 257]	67	105	111
CC(C)(C)OC(=O)NCC(c1ccccc1)N1Cc2cc(Oc3ccccc3)ccc2N=C1N (stereo not drawn) [Compound 258]	<30	46	72
CN(C(=O)c1cccc(CN2Cc3cc(C=Cc4ccccc4)ccc3N=C2N)c1)C1CCCCC1 [Compound 266]	<30	34	<30
CN(C(=O)c1cccc(CN2Cc3cc(-c4ccc(C5CCCCC5)cc4)ccc3N=C2N)c1)C1CCCCC1 [Compound 267]	<30	39	38
NC1=Nc2ccc(Oc3ccccc3)cc2CN1Cc1cccc(NC(=O)C2CCCCC2)c1 [Compound 286]	<30	<30	36
CC(C)(C)C(=O)Nc1cccc(CN2Cc3cc(Oc4ccccc4)ccc3N=C2N)c1 [Compound 290]	<30	<30	<30
CN(C(=O)CCC(c1ccc(Cl)cc1)N1Cc2cc(Oc3ccccc3)ccc2N=C1N)C1CCCCC1 (stereo not drawn) [Compound 297]	<30	76	109
NC1=Nc2ccc(Oc3ccccc3)cc2CN1C(CC(=O)NC1CCCCC1)c1ccccc1 (stereo not drawn) [Compound 299]	<30	<30	<30
NC1=Nc2ccc(Oc3ccccc3)cc2CN1C(CC(=O)NC1CCCCC1)C1CCCCC1 (stereo not drawn) [Compound 300]	<30	<30	77
CC(C)C(=O)NCC(C1CCCCC1)N1Cc2cc(Oc3ccccc3)ccc2N=C1N (stereo not drawn) [Compound 301]	<30	82	106
CCCCC(CC)C(=O)NCC(C1CCCCC1)N1Cc2cc(Oc3ccccc3)ccc2N=C1N (stereo not drawn) [Compound 303]	<30	70	109
NC1=Nc2ccc(Oc3ccccc3)cc2CN1Cc1cccc(CNC(=O)C2CCCCC2)c1 [Compound 306]	<30	<30	46
NC1=Nc2ccc(Oc3ccccc3)cc2CN1Cc1cccc(CNC(=O)C(F)(F)F)c1 [Compound 307]	<30	<30	<30
CN(C(=O)c1cccc(C(CC2CCCCC2)N2Cc3cc(Oc4ccccc4)ccc3N=C2N)c1)C1CCCCC1 (stereo not drawn) [Compound 310]	<30	<30	57
NC1=Nc2ccc(Oc3ccccc3)cc2CN1C(CNC(=O)CC1CCCC1)C1CCCCC1 (stereo not drawn) [Compound 311]	74	108	118
NC1=Nc2ccc(Oc3ccccc3)cc2CN1C(CNC(=O)C12CC3CC(CC(C3)C1)C2)C1CCCCC1 (stereo not drawn) [Compound 312]	74	103	115
CC(C)c1ccccc1Oc1ccc2c(c1)CN(C(CC(=O)NC1CCCCC1)C1CCCCC1)C(N)=N2 (stereo not drawn) [Compound 313]	<30	<30	31
NC1=Nc2ccc(Oc3ccccc3)cc2CN1C(CC(=O)NC1C2CC3CC(C2)CC1C3)C1CCCCC1 (stereo not drawn) [Compound 314]	<30	45	85
CC(C)(C)OC(=O)NCc1cccc(CN2Cc3cc(Oc4ccccc4)ccc3N=C2N)c1 [Compound 315]	<30	<30	33
CN1CCC(N(C)C(=O)c2cccc(C(c3ccccc3)N3Cc4cc(Oc5ccccc5)ccc4N=C3N)c2)CC1 (stereo not drawn) [Compound 316]	<30	<30	<30
